Consider 5 compounds from patent US7211545B2, “Imidazo[1,2-a]pyrimidine and fungicidal compositions containing thereof” (Sumitomo Chemical Company, Limited, priority 2001, dated 2007).

The term melting point denotes the temperature of the solid-liquid transition.

Series [1] deals with Botrytis cinerea. The series can be described thus: Test Example 3: preventive efficacy against Botrytis cinerea on cucumber (comparison with Reference Compound A). It counts as in vivo. The following applies: 500 ppm flowable, foliar spray on cucumber cotyledons, inoculated after spraying, 12° C. humid, 4 days. On the procedure: The control effect of the present compound was evaluated by visually observing the area of a lesion on a plant under test in investigation and comparing the area of a lesion in a non-treatment group and the area of a lesion in a group treated with the present compound. Sand loam was compacted in plastic pots, cucumbers (Ochiai Aonagafushinari) were seeded and grown in a greenhouse for 10 days. Then, each of Reference Compound A and Compound 182 was formulated into a flowable formulation according to Formulation Example 6, then, diluted with water to provide prescribed concentration (500 ppm), and sprayed over the foliage so as to give sufficient adhesion on the surface of cucumber cotyledons. After spraying, the plants were air-dried, and PDA medium containing spores of Botrytis cinerea were attached on cucumber cotyledons. After the inoculation, the cucumbers were placed in a humid condition at 12° C. for 4 days, and the control effect was examined. As a result, areas of lesions on the plant treated with Reference Compound A were in the range of 75% to 100% on those of the untreated groups, on the other hand, areas of lesions on the plant treated with Compound 182 was not greater than 1% of areas of lesions on those of the untreated groups.

In series [2] the test system is Sphaerotheca fuliginea. The series can be described thus: Test Example 4: preventive efficacy against Sphaerotheca fuliginea on cucumber (comparison with Reference Compound A). The settings on record: 500 ppm flowable, foliar spray on cucumber leaves, inoculated after spraying, 23° C., 12 days. It counts as in vivo. On the procedure:
The control effect of the present compound was evaluated by visually observing the area of a lesion on a plant under test in investigation and comparing the area of a lesion in a non-treatment group and the area of a lesion in a group treated with the present compound. Sand loam was compacted in plastic pots, cucumbers (Ochiai Aonagafushinari) were seeded and grown in a greenhouse for 12 days. Then, each of Reference Compound A and Compound 182 was formulated into flowable formulations according to Formulation Example 6, then, diluted with water to provide prescribed concentration (500 ppm), and sprayed over the foliage so as to give sufficient adhesion on the surface of cucumber leaves. After spraying, the plants were air-dried, and inoculated with spores of Sphaerotheca fuliginea. After the inoculation, the cucumbers were placed at 23° C. for 12 days, and the control effect was examined. As a result, areas of lesions on the plant treated with Reference Compound A were in the range of 75% to 100% on those of the untreated groups, on the other hand, areas of lesions on the plant treated with Compound 182 was not greater than 1% of infested areas on those of the untreated groups.

`CCCN(CCC)c1c(-c2c(F)cc(F)cc2F)c(Cl)nc2nccn12` [Compound 8, 5-(di-n-propylamino)-6-(2,4,6-trifluorophenyl)-7-chloroimidazo[1,2-a]pyrimidine] yielded a melting point of 95.4 °C.

Compound `CC1CCN(c2c(-c3c(F)cc(F)cc3F)c(Cl)nc3nccn23)CC1` [Compound 55, 5-(4-methylpiperidin-1-yl)-6-(2,4,6-trifluorophenyl)-7-chloroimidazo[1,2-a]pyrimidine] gave a melting point of 200.8 °C.

On to `Cc1cc(C)n(-c2c(-c3c(F)cc(F)cc3F)c(Cl)nc3nccn23)n1` [Compound 89, 5-(3,5-dimethylpyrazol-1-yl)-6-(2,4,6-trifluorophenyl)-7-chloroimidazo[1,2-a]pyrimidine], for which the melting point was 150.4 °C.

Take `CC1CCN(c2c(-c3c(F)cccc3Cl)c(Cl)nc3nccn23)CC1` [Compound 182, 5-(4-methylpiperidin-1-yl)-6-(2-chloro-6-fluorophenyl)-7-chloroimidazo[1,2-a]pyrimidine]: the melting point worked out at 183.8 °C. For the same compound, the “areas of lesions on treated plant as % of areas of lesions on untreated groups” value in series [1] is on record as at most 1%. Besides, the “areas of lesions on treated plant as % of infested areas on untreated groups” value in series [2] is reported as at most 1%.

In the case of `Cc1nc2nccn2c(N2CCC(C)CC2)c1-c1c(F)cccc1Cl` [Compound 428, 5-(4-methylpiperidin-1-yl)-6-(2-chloro-6-fluorophenyl)-7-methylimidazo[1,2-a]pyrimidine], the melting point came to 144.5 °C.
